For data set [1] the following is noted: Crystal; DSC.
Data set [2] can be described thus: Molar enthalpy of transition or fusion. Particulars: Crystal; DSC.

± gives the expanded uncertainty stated by the source.

On to `O=[N+]([O-])[O-].c1cc[nH+]cc1` [pyridinium nitrate], for which the Triple point temperature in data set [1] was 390 ± 5 K. In addition, the “Molar enthalpy of transition or fusion” value in data set [2] worked out at 4.13 ± 0.148 kcal/mol.

(Values after the NIST ThermoML archive (doi:10.1016/j.tca.2018.05.016).)
